{"source": "paper PMC4738305", "about": "“Metabolism and Disposition of Aditoprim in Swine, Broilers, Carp and Rats” (Scientific Reports, 2016)", "key": {"[1]": {"test": "Radioactivity excretion (mass balance) after a single oral dose of ^3H-ADP", "assay_type": "in vivo", "settings": "single oral 5 mg/kg b. w., within 14 d", "method": "Animals (4 swine, 6 broilers, 6 carp, and 3 male and 3 female rats) were housed individually in clean, suspended wire-mesh metabolism cages, designed to separate the urine from the feces (carp were raised in individual aquaria). Each animal was weighed and assigned with a permanent identification number. A single dose of ^3 H-ADP (5 mg/kg b. w., 0.1 Ci/g) was administered via the oral gavage. Excreta were collected on ice at the pre-administration, in the period of 6, 12, and 24 h on day 1 d, and afterwards, intermittently in the period of 24 h up to 14 d. The piscine excreta were collected by changing and collecting raised water. The total volume or weight of each sample was measured and homogenized. The total radioactivity levels were determined through LSC for the recovery calculations. After the preparation, the samples were analyzed through LC/MS-IT-TOF with v. […] The pretreatment samples were used as controls to determine the background radioactivity or the endogenous nondrug-related ions observed within respective matrices or their extracts.\nMeasurements of the total radioactivity in each sample were conducted by Packard Tri-Carb 2900 TR liquid scintillation counter (PerkinElmer Life and Analytical Sciences). […] The actual radioactivity of each sample was calculated by subtracting the background value form the mean radioactivity in two blank samples. […]"}, "[2]": {"test": "Tissue distribution and elimination of total radioactivity (total residues) after oral ^3H-ADP for 7 d", "assay_type": "in vivo, broilers", "set-up": "Elimination kinetics Ke: unit not given here", "settings": "for Elimination kinetics Ke / Elimination kinetics t1/2 / Concentrations of total residues: broilers; for Elimination kinetics Ke / Elimination kinetics t1/2: 5 mg/kg b.w. 7 days", "method": "(0.1 Ci/g) through oral gavage for 7 consecutive days. All the animals were housed on the basis of their group in the cages or aquaria throughout the whole study period. A group of animals was slaughtered through exsanguination under diethyl ether inhalation of anesthesia in the period of 6 h, 1, 3, 7, 14, and 21 d after the administration. The blood samples were immediately collected into the heparinized tubes and was centrifuged at 1920 × g at 4 °C for 10 min to obtain the plasma. The tissues from the heart, liver, spleen, lung, kidney, craw (broilers), stomach, intestine, fat, skin, muscle, thymus, pancreas, bile, bladder, hair (scale for carp), genital gland, adrenal glands, swim bladder (carp), brain, lymph, and bursa (broilers) were carefully excised and collected. The tissues were thoroughly rinsed with the deionized water to remove the residuary blood, blotted to dryness, and finally to perform the homogenization. In order to avoid cross-contamination the dissecting instruments were washed during the tissue procurements. The blank tissues were collected in order to provide control matrices. The total radioactivity levels in each sample were determined through LSC. The samples extracted from the plasma, bile, and tissues of the liver, kidney, muscle, and fat/skin were analyzed through LC/MS-IT-TOF and v. ARC radiometric detection for metabolite profiling.\nMeasurements of the total radioactivity in each sample were conducted by Packard Tri-Carb 2900 TR liquid scintillation counter (PerkinElmer Life and Analytical Sciences). The detection time was 10 min for two cycles. The scintillation counter data were automatically corrected for counting efficiency by instrument-stored quench curve which was drawn with a series of sealed quenched […] standards. The actual radioactivity of each sample was calculated by subtracting the background value form the mean radioactivity in two blank samples. All the samples were analyzed in duplicate if the sample size allowed this. If the results were differed by more than 10% from the mean value, the samples were reanalyzed. The samples with LSC counts less than 2-fold of the level of the running background were considered to contain insufficient radioactivity for reliable quantification.\nAliquots of liquid samples (urine, plasma, bile and raised water, 200 μL) were mixed with 10 mL of Ultima Gold^TM scintillation fluid for the direct analysis by LSC. Aliquots of solid samples (feces and tissues, 200 mg) were digested overnight with 2 mL tissue solubilizer at 50 °C in a shaking water bath, followed by adding 200 μL of 0.1 mol/L EDTA-Na and 200 μL of 30% H2O2, and was bathed at 50 °C for 2 h to bleach. The obtained transparent liquid were mixed with 10 mL of scintillation fluid and finally were counted by LSC. The digestion efficiency was determined by using the blank samples spiked with ^3 H standard for digestion, and the measured radioactivity content in the digested samples were adjusted by using the digestion efficiency values.\nThe concentrations of ADP and/or its metabolites were analyzed by using the following equation: C = L/(2.22 × 10^9 × RM), where C is the concentration of ADP or/and its metabolites (mg/kg), L is the LSC count (dpm), R is the specific activity of the administered dose (0.1 Ci/g), and M is the weight or volume of samples (kg or L). The results are expressed as mean ± SD. The elimination kinetics of terminal phase for ADP and its metabolites were conducted by using the WinNonlin linear regression program (Pharsight corporation, Statistical consultants, Inc., Kentucky, USA)."}}}
{"molecule": "COc1cc(Cc2cnc(N)nc2N)cc(OC)c1N(C)C", "note": "[A0, 2,4-Diamino-5-[4-(dimethylamino)-3,5-dimethoxybenzyl] pyrimidine]", "values": [{"measurement": "urine excretion of radioactivity", "setting": "[1]; rats", "value": "78 % of the administered dose"}, {"measurement": "urine excretion of radioactivity", "setting": "[1]; swine", "value": "78 % of the administered dose"}]}
{"molecule": "[3H]c1c(Cc2cnc(N)nc2N)cc(OC)c(N(C)C)c1OC", "note": "[^3H-ADP]", "values": [{"measurement": "concentration of total radioactivity", "setting": "[2]; broilers bile, within 6 h after oral ^3H-ADP for 7 d", "value": "25.2 ± 8.5", "unit": "mg/kg"}, {"measurement": "Elimination kinetics Ke", "setting": "[2]; Bile", "value": 0.71}, {"measurement": "Elimination kinetics t1/2", "setting": "[2]; Bile", "value": 25.9, "unit": "h"}, {"measurement": "Elimination kinetics Ke", "setting": "[2]; Blood", "value": 0.31}, {"measurement": "Elimination kinetics t1/2", "setting": "[2]; Blood", "value": 54, "unit": "h"}, {"measurement": "Elimination kinetics Ke", "setting": "[2]; Brain", "value": 0.47}, {"measurement": "Elimination kinetics t1/2", "setting": "[2]; Brain", "value": 35.5, "unit": "h"}, {"measurement": "Elimination kinetics Ke", "setting": "[2]; Bursa of Fabricius", "value": 0.33}, {"measurement": "Elimination kinetics t1/2", "setting": "[2]; Bursa of Fabricius", "value": 50.6, "unit": "h"}, {"measurement": "Elimination kinetics Ke", "setting": "[2]; Fat", "value": 0.42}, {"measurement": "Concentrations of total residues", "setting": "[2]; Fat, time 0.25, 5 mg/kg b.w. 7 days", "value": "0.78 ± 0.32", "unit": "mg/kg"}, {"measurement": "Concentrations of total residues", "setting": "[2]; Fat, time 1, 5 mg/kg b.w. 7 days", "value": "0.43 ± 0.05", "unit": "mg/kg"}, {"measurement": "Concentrations of total residues", "setting": "[2]; Fat, time 3, 5 mg/kg b.w. 7 days", "value": "0.24 ± 0.02", "unit": "mg/kg"}, {"measurement": "Concentrations of total residues", "setting": "[2]; Fat, time 7, 5 mg/kg b.w. 7 days", "value": "0.04 ± 0.01", "unit": "mg/kg"}, {"measurement": "Elimination kinetics Ke", "setting": "[2]; Feathers", "value": 0.28}, {"measurement": "Elimination kinetics t1/2", "setting": "[2]; Feathers", "value": 60, "unit": "h"}, {"measurement": "Concentrations of total residues", "setting": "[2]; Feathers, time 0.25, 5 mg/kg b.w. 7 days", "value": "0.85 ± 0.17", "unit": "mg/kg"}, {"measurement": "Concentrations of total residues", "setting": "[2]; Feathers, time 1, 5 mg/kg b.w. 7 days", "value": "0.53 ± 0.12", "unit": "mg/kg"}, {"measurement": "Concentrations of total residues", "setting": "[2]; Feathers, time 3, 5 mg/kg b.w. 7 days", "value": "0.27 ± 0.03", "unit": "mg/kg"}, {"measurement": "Concentrations of total residues", "setting": "[2]; Feathers, time 7, 5 mg/kg b.w. 7 days", "value": "0.10 ± 0.01", "unit": "mg/kg"}, {"measurement": "Elimination kinetics Ke", "setting": "[2]; Glandular stomach", "value": 0.59}, {"measurement": "Elimination kinetics t1/2", "setting": "[2]; Glandular stomach", "value": 28.1, "unit": "h"}, {"measurement": "Concentrations of total residues", "setting": "[2]; Glandular stomach, time 1, 5 mg/kg b.w. 7 days", "value": "1.54 ± 0.36", "unit": "mg/kg"}, {"measurement": "Concentrations of total residues", "setting": "[2]; Glandular stomach, time 3, 5 mg/kg b.w. 7 days", "value": "0.27 ± 0.05", "unit": "mg/kg"}, {"measurement": "Concentrations of total residues", "setting": "[2]; Glandular stomach, time 7, 5 mg/kg b.w. 7 days", "value": "0.04 ± 0.00", "unit": "mg/kg"}, {"measurement": "Elimination kinetics Ke", "setting": "[2]; Heart", "value": 0.29}, {"measurement": "Elimination kinetics t1/2", "setting": "[2]; Heart", "value": 57.8, "unit": "h"}, {"measurement": "Elimination kinetics Ke", "setting": "[2]; Kidney", "value": 0.30}, {"measurement": "Elimination kinetics Ke", "setting": "[2]; Large Intestine", "value": 0.90}, {"measurement": "Elimination kinetics t1/2", "setting": "[2]; Large Intestine", "value": 18.5, "unit": "h"}, {"measurement": "Concentrations of total residues", "setting": "[2]; Large Intestine, time 0.25, 5 mg/kg b.w. 7 days", "value": "6.29 ± 1.45", "unit": "mg/kg"}, {"measurement": "Concentrations of total residues", "setting": "[2]; Large Intestine, time 1, 5 mg/kg b.w. 7 days", "value": "1.25 ± 0.23", "unit": "mg/kg"}, {"measurement": "Concentrations of total residues", "setting": "[2]; Large Intestine, time 3, 5 mg/kg b.w. 7 days", "value": "0.12 ± 0.03", "unit": "mg/kg"}, {"measurement": "Concentrations of total residues", "setting": "[2]; Large Intestine, time 7, 5 mg/kg b.w. 7 days", "value": "0.01 ± 0.00", "unit": "mg/kg"}, {"measurement": "Elimination kinetics Ke", "setting": "[2]; Liver", "value": 0.21}, {"measurement": "Elimination kinetics Ke", "setting": "[2]; Lung", "value": 0.61}, {"measurement": "Elimination kinetics t1/2", "setting": "[2]; Lung", "value": 27.4, "unit": "h"}, {"measurement": "Elimination kinetics Ke", "setting": "[2]; Maw", "value": 0.53}, {"measurement": "Elimination kinetics t1/2", "setting": "[2]; Maw", "value": 31.4, "unit": "h"}, {"measurement": "Elimination kinetics Ke", "setting": "[2]; Muscle", "value": 0.23}, {"measurement": "Concentrations of total residues", "setting": "[2]; Muscle, time 0.25, 5 mg/kg b.w. 7 days", "value": "1.10 ± 0.44", "unit": "mg/kg"}, {"measurement": "Concentrations of total residues", "setting": "[2]; Muscle, time 1, 5 mg/kg b.w. 7 days", "value": "0.23 ± 0.10", "unit": "mg/kg"}, {"measurement": "Elimination kinetics Ke", "setting": "[2]; Muscular stomach", "value": 0.46}, {"measurement": "Elimination kinetics t1/2", "setting": "[2]; Muscular stomach", "value": 36.5, "unit": "h"}, {"measurement": "Concentrations of total residues", "setting": "[2]; Muscular stomach, time 0.25, 5 mg/kg b.w. 7 days", "value": "1.92 ± 0.57", "unit": "mg/kg"}, {"measurement": "Concentrations of total residues", "setting": "[2]; Muscular stomach, time 1, 5 mg/kg b.w. 7 days", "value": "0.69 ± 0.10", "unit": "mg/kg"}, {"measurement": "Concentrations of total residues", "setting": "[2]; Muscular stomach, time 3, 5 mg/kg b.w. 7 days", "value": "0.25 ± 0.03", "unit": "mg/kg"}, {"measurement": "Concentrations of total residues", "setting": "[2]; Muscular stomach, time 7, 5 mg/kg b.w. 7 days", "value": "0.04 ± 0.01", "unit": "mg/kg"}, {"measurement": "Elimination kinetics Ke", "setting": "[2]; Pancreas", "value": 0.57}, {"measurement": "Elimination kinetics t1/2", "setting": "[2]; Pancreas", "value": 29, "unit": "h"}, {"measurement": "Elimination kinetics Ke", "setting": "[2]; Skin", "value": 0.43}, {"measurement": "Elimination kinetics t1/2", "setting": "[2]; Skin", "value": 38.6, "unit": "h"}, {"measurement": "Concentrations of total residues", "setting": "[2]; Skin, time 0.25, 5 mg/kg b.w. 7 days", "value": "1.78 ± 0.42", "unit": "mg/kg"}, {"measurement": "Concentrations of total residues", "setting": "[2]; Skin, time 1, 5 mg/kg b.w. 7 days", "value": "0.74 ± 0.11", "unit": "mg/kg"}, {"measurement": "Concentrations of total residues", "setting": "[2]; Skin, time 3, 5 mg/kg b.w. 7 days", "value": "0.25 ± 0.02", "unit": "mg/kg"}, {"measurement": "Concentrations of total residues", "setting": "[2]; Skin, time 7, 5 mg/kg b.w. 7 days", "value": "0.05 ± 0.01", "unit": "mg/kg"}, {"measurement": "Elimination kinetics Ke", "setting": "[2]; Small Intestine", "value": 0.75}, {"measurement": "Elimination kinetics t1/2", "setting": "[2]; Small Intestine", "value": 22.1, "unit": "h"}, {"measurement": "Concentrations of total residues", "setting": "[2]; Small Intestine, time 0.25, 5 mg/kg b.w. 7 days", "value": "8.23 ± 0.93", "unit": "mg/kg"}, {"measurement": "Concentrations of total residues", "setting": "[2]; Small Intestine, time 1, 5 mg/kg b.w. 7 days", "value": "4.06 ± 1.32", "unit": "mg/kg"}, {"measurement": "Concentrations of total residues", "setting": "[2]; Small Intestine, time 3, 5 mg/kg b.w. 7 days", "value": "0.29 ± 0.04", "unit": "mg/kg"}, {"measurement": "Concentrations of total residues", "setting": "[2]; Small Intestine, time 7, 5 mg/kg b.w. 7 days", "value": "0.04 ± 0.00", "unit": "mg/kg"}, {"measurement": "Elimination kinetics Ke", "setting": "[2]; Spleen", "value": 0.26}, {"measurement": "Elimination kinetics t1/2", "setting": "[2]; Spleen", "value": 63.1, "unit": "h"}]}
